Article PMC6155662, “Trypanocidal Activity of Quinoxaline 1,4 Di-N-oxide Derivatives as Trypanothione Reductase Inhibitors” (Molecules : A Journal of Synthetic Chemistry and Natural …, 2017)

What was measured:
[1] = test system: T. cruzi INC-5 epimastigotes; test: Viability (MTT) assay on T. cruzi epimastigotes; assay type: cell-based, Trypanosoma cruzi; conditions: Trypanosoma cruzi, 24 h, mean and SD of triplicate
Description: In this study, two strains of T. cruzi isolated in Mexico were used. […] Epimastigotes were cultured in vitro in liver infusion-tryptose (LIT) medium supplemented with 10% heat inactivated fetal bovine serum (FBS) (Gibco) and 100 U/mL penicillin-streptomycin (In vitro S.A.), and incubated at 27 °C. CD1 mice, aged 6–8 weeks, were infected with T. cruzi to obtain bloodstream trypomastigote samples.
Viability assays of T. cruzi epimastigotes using 3-(4,5-dimethylthiazol-2-yl)-2,5-diphenyltetrazolium bromide (MTT) were performed. Briefly, the parasites were harvested during the exponential growth phase for a period of five days. In a 96-well microplate 1x10^6 epimastigotes were deposited in brain-heart infusion (BHI) medium supplemented with 10% FBS and 100 U/mL antibiotic-antifungal mixture (Gibco). […] Each well reached a final volume of 100 µL. Each condition was assessed in triplicate. The microplate was incubated for 24 h at 27 °C in darkness. Afterwards, 10 μL of a 5 mg/mL MTT solution was added and the plate was incubated for 20 h at 27 °C. Then 200 μL of 10% dodecyl sulfate (SDS)/0.1% HCl solution was added to dissolve formazan salts; the plate was incubated an additional 4 h. Finally, the plate was read at 570 nm in a spectrophotometer (Multiskan EX Thermo Electron, Taipei, Taiwan). The amount of viable cells was proportional to the amount of formazan produced. […] Later the results were converted to micromolar units. […] As a […] control, parasites were incubated only in culture medium with a 1% DMSO concentration, corresponding to the highest sample dilution of DMSO [34, 35, 36].

[2] = test system: T. cruzi bloodstream trypomastigotes NINOA strain; test: microbe, parasite or virus in culture; assay type: cell-based; conditions: Trypanosoma cruzi; for killing at 50 µg/mL: 50 μg/mL, 24 h at 4 °C, infected mouse blood, read-out: % Lysis at 50 μg/mL NINOA Strain; for LC50: 24 h
Description: (§1) In this study, two strains of T. cruzi isolated in Mexico were used. T. cruzi NINOA strain (MHOM/MX/1994/NINOA) was obtained from a patient with acute Chagas disease and T. cruzi INC-5 (MHOM/MX/1994/INC5) was isolated from a patient in the chronic phase of the disease. Epimastigotes were cultured in vitro in liver infusion-tryptose (LIT) medium supplemented with 10% heat inactivated fetal bovine serum (FBS) (Gibco) and 100 U/mL penicillin-streptomycin (In vitro S.A.), and incubated at 27 °C. CD1 mice, aged 6–8 weeks, were infected with T. cruzi to obtain bloodstream trypomastigote samples. Animal experiments were performed according to Norma Oficial Mexicana (NOM-062-Z00-1999) published on 22 August, 2009.
(§2) CD1 female mice 6–8 weeks old were infected with T. cruzi bloodstream trypomastigotes of the INC-5 and NINOA strains. The course of infection continued for 4–6 weeks. At the peak of parasitemia blood was obtained by cardiac puncture using sodium heparin as an anticoagulant. The blood was adjusted to 1 × 10^6 bloodstream trypomastigotes/mL.
(§3) In each well of the 96-well plate, 195 μL of infected blood and 5 μL of quinoxaline 1,4-di-N-oxide derivatives or reference drug dilutions were seeded, with each well reaching a final volume of 200 µL. Each assay was performed in triplicate. Initially, all compounds were tested at 50 μg/mL. […] As a negative control of lysis, wells with untreated blood trypomastigotes were used, and as a positive control, wells with the reference drugs were used. The microplates were incubated at 4 °C for 24 h. Bloodstream trypomastigotes were quantified by the method of Brener-Pizzi, 5 μL of blood were placed on a slide and covered with a coverslip 13 × 13 mm. The mobile protozoa were counted in 15 fields at 40× magnification using an optical microscope. The percentage lysis was determined by comparing the remaining trypomastigotes against the negative control. LC50 was determined with the Probit statistical tool. The results were later converted to micromolar units.

[3] = test system: T. cruzi bloodstream trypomastigotes INC-5 strain; test: microbe, parasite or virus in culture; assay type: cell-based; conditions: Trypanosoma cruzi; for CC50: 24 h, bloodstream trypomastigotes, 24 h at 4 °C (called IC50 in abstract), read-out: LC50 INC-5 Strain; for killing at 50 µg/mL: 50 μg/mL, 24 h at 4 °C, infected mouse blood, read-out: % Lysis at 50 μg/mL INC-5 Strain
Description: as §1, §2, §3

[4] = Cytotoxicity assay (Alamar Blue) on macrophages; assay type: cell-based, murine; conditions: mouse, J774A.1 macrophages, mean and SD of triplicate
Description: The murine macrophage cell line J774.A1 was maintained in culture flasks with RPMI 1640 medium supplemented with 10% FBS, 1% MEM-NEAA medium (Gibco) and 100 U/mL antibiotic-antifungal mixture (Gibco). Cells were incubated at 37 °C with 5% CO2 and humidity. Trypsinized J774.A1 macrophages were washed and viability was assessed by the trypan blue dye (Sigma-Aldrich, Toluca, Edo de Mexico, Mexico) exclusion assay. In a 96-well microplate, 50,000 macrophages were seeded per well and a dose-response assay was performed. Compounds were evaluated using six-fold serial dilutions ranging from 100 µg/mL to 0.3 µg/mL of final concentration. Each compound was tested in triplicate. After 20 h incubation, Alamar Blue was added (10% v/v) and cells were incubated for an additional 4 h period. Results were obtained as previously described and CC50 was calculated. As a negative control of cytotoxicity, cells were incubated only in the presence of 0.1% DMSO [39, 40].

| IC50 [1] [µM] | SMILES | killing at 50 µg/mL [2] [%] | CC50 [3] [µM] | killing at 50 µg/mL [3] [%] | CC50 at 24 h [4] [µM] | LC50 [2] [µM] |
| --- | --- | --- | --- | --- | --- | --- |
| > 148 | CCOC(=O)c1c(C)[n+]([O-])c2ccc(C(=O)OC(C)C)cc2[n+]1[O-] [Compound T-065, Isopropyl ethyl-3-methylquinoxaline-2,7-dicarboxylate 1,4-di-N-oxide] | 0.77 ± 1.58 |  | 3.78 ± 5.7 | > 296 |  |
| > 137 | Cc1c(C(=O)OC(C)(C)C)[n+]([O-])c2cc(C(=O)OC(C)C)ccc2[n+]1[O-] [Compound T-066, Isopropyl tert-butyl-3-methylquinoxaline-2,7-dicarboxylate 1,4-di-N-oxide] | 2.6 ± 4.3 |  | 5.4 ± 3.7 | > 273 |  |
| 4.95 ± 0.5 | CC(C)OC(=O)c1ccc2c(c1)[n+]([O-])c(C(=O)c1cccs1)c(C(F)(F)F)[n+]2[O-] [Compound T-069, Isopropyl 2-(thiophene-2-carbonyl)-3-trifluoromethylquinoxaline-7-carboxylate 1,4-di-N-oxide] | 57.3 ± 2.8 | 111 ± 9.3 | 77.7 ± 9.3 | 12.8 ± 0.6 | 98 ± 6.1 |
| 2.83 ± 0.7 | CC(=O)c1c(C(F)(F)F)[n+]([O-])c2ccc(C(=O)OC(C)C)cc2[n+]1[O-] [Compound T-070, Isopropyl 2-acetyl-3-trifluoromethylquinoxaline-7-carboxylate 1,4-di-N-oxide] | 46 ± 2.7 |  | 10.8 ± 5.4 | 17.5 ± 0.7 |  |
| 4.03 ± 0.5 | CC(C)OC(=O)c1ccc2c(c1)[n+]([O-])c(C(=O)c1ccccc1)c(C(F)(F)F)[n+]2[O-] [Compound T-071, Isopropyl 2-benzoyl-3-trifluoromethylquinoxaline-7-carboxylate 1,4-di-N-oxide] | 58.8 ± 4.4 | 103 ± 8.3 | 69.2 ± 5.1 | 6.7 ± 0.8 | 97.8 ± 6.3 |
| 139 ± 13.5 | CCCOC(=O)c1ccc2c(c1)[n+]([O-])c(C(=O)OC)c(C)[n+]2[O-] [Compound T-088, n-Propil methyl-3-methylquinoxaline-2,7-dicarboxylate 1,4-di-N-oxide] | 16.3 ± 11.1 |  | 33.6 ± 6.8 | 143 ± 9.7 |  |
| 155 ± 12.3 | CCCOC(=O)c1ccc2c(c1)[n+]([O-])c(C(=O)OCC)c(C)[n+]2[O-] [Compound T-090, n-Propil ethyl-3-methylquinoxaline-2,7-dicarboxylate 1,4-di-N-oxide] | 28.6 ± 3.1 |  | 47.3 ± 3.3 | 146 ± 9.2 |  |
| > 137 | CCCOC(=O)c1ccc2c(c1)[n+]([O-])c(C(=O)OC(C)(C)C)c(C)[n+]2[O-] [Compound T-091, n-Propil tert-butyl-3-methylquinoxaline-2,7-dicarboxylate 1,4-di-N-oxide] | 7.3 ± 3.3 |  | 8.15 ± 2.2 | > 273 |  |
| 142 ± 8.3 | Cc1c(C(=O)c2ccccc2)[n+]([O-])c2cc(C(=O)OC(C)C)ccc2[n+]1[O-] [Compound T-098, Isopropyl 2-benzoyl-3-methylquinoxaline-7-carboxylate 1,4-di-N-oxide] | 6.89 ± 5.8 |  | 0.34 ± 0.6 | 140 ± 8.1 |  |
| 91.7 ± 10.5 | CC(C)OC(=O)c1ccc2c(c1)[n+]([O-])c(C(=O)C(C)(C)C)c(C(C)(C)C)[n+]2[O-] [Compound T-107, Isopropyl 2-(tert-butyl-2-carbonyl)-3-tert-butylquinoxaline-7-carboxylate 1,4-di-N-oxide] | 6.28 ± 4.7 |  | 5.32 ± 3.8 | 164 ± 7.7 |  |
| 131 ± 12.3 | Cc1c(C(N)=O)[n+]([O-])c2cc(C(=O)OC(C)C)ccc2[n+]1[O-] [Compound T-108, Isopropyl 2-amide-3-methyl-quinoxaline-7-carboxilate 1,4-di-N-óxide] | 12.8 ± 7.2 |  | 18.8 ± 2.8 | 221 ± 9.4 |  |

The remaining lines, values behind:

| SMILES | IC50 [1] [µM] | killing at 50 µg/mL [2] [%] | CC50 [3] [µM] | killing at 50 µg/mL [3] [%] | CC50 at 24 h [4] [µM] | LC50 [2] [µM] |
| --- | --- | --- | --- | --- | --- | --- |
| O=C(Cn1ccnc1[N+](=O)[O-])NCc1ccccc1 [Bnz, benznidazole, reference compound] | 42.3 ± 5.76 | 58.1 ± 4.5 | 85.3 ± 16.7 | 53.5 ± 5.6 | 352 ± 17.1 |  |
| COC(=O)c1c(C)[n+]([O-])c2ccc(C(=O)OC(C)C)cc2[n+]1[O-] [Compound T-064, Isopropyl methyl-3-methyl-quinoxaline-2,7-dicarboxylate 1,4-di-N-oxide] | 43.7 ± 8.6 | 3.2 ± 2 |  | 1.7 ± 2 | 135 ± 11.1 |  |
| CCOC(=O)Cc1c(C(=O)OCC)[n+]([O-])c2cc(C(=O)OC(C)C)ccc2[n+]1[O-] [Compound T-067, Isopropyl ethyl-3-(2-ethoxy-2-oxoethyl) quinoxaline-2,7-dicarboxylate 1,4-di-N-oxide] | 12.1 ± 0.4 | 18.5 ± 2.2 |  | 14.4 ± 9.2 | 44.4 ± 7.1 |  |
| CC(C)OC(=O)c1ccc2c(c1)[n+]([O-])c(C(=O)c1ccco1)c(C(F)(F)F)[n+]2[O-] [Compound T-073, Isopropyl 2-(furyl-2-carbonyl)-3-trifluoromethylquinoxaline-7-carboxylate 1,4-di-N-oxide] | 33.7 ± 9.2 | 35 ± 4.5 |  | 22.1 ± 4.32 | 55.4 ± 2.9 |  |
| CCCOC(=O)c1ccc2c(c1)[n+]([O-])c(C(=O)c1cccs1)c(C(F)(F)F)[n+]2[O-] [Compound T-089, n-Propil 2-(thiophene-2-carbonyl)-3-trifluoromethylquinoxaline-7-carboxylate 1,4-di-N-oxide] | 7.59 ± 1.4 | 51.6 ± 3.4 | 122 ± 6.5 | 42 ± 6.5 | 7.71 ± 0.7 | 115 ± 8.4 |
| Cc1c(C(=O)Nc2ccccc2)[n+]([O-])c2cc(C(=O)OC(C)C)ccc2[n+]1[O-] [Compound T-097, Isopropyl 2-phenylamide-3-methylquinoxaline-7-carboxylate 1,4-di-N-oxide] | > 130 | 12.2 ± 10.9 |  | 12.4 ± 5.2 | > 261 |  |
| CCOC(=O)c1c(C(F)(F)F)[n+]([O-])c2ccc(C(=O)OC(C)C)cc2[n+]1[O-] [Compound T-116, Isopropyl ethyl-3-trifluoromethylquinoxaline-2,7-dicarboxylate 1,4-di-N-oxide] | 5.2 ± 2.1 | 49.9 ± 4 |  | 17.6 ± 2.6 | 14.5 ± 0.8 |  |
| CC(C)OC(=O)c1ccc2c(c1)[n+]([O-])c(C(=O)C(F)(F)C(F)(F)F)c(C(F)(F)F)[n+]2[O-] [Compound T-118, Isopropyl 2-pentafluorocarbonyl-3-trifluoromethylquinoxaline-7-carboxylate 1,4-di N-oxide] | 72.2 ± 8 | 34.4 ± 3.1 |  | 0 | 157 ± 6.3 |  |
